Assay results from patent US5798381A, “Biologically active bistramides, process for their production and their applications in therapy” (Institut Francais de Recherche Scientifique pour le …, priority 1993, dated 1998).
Converted amounts (≈) assume the structure as drawn. Read-outs that look alike come from different tables or passages of the source.

Tests used:
P388 (p388s) = test: Cytotoxicity, 50% inhibition of cell growth, P388; assay type: cell-based; conditions: Mus musculus, P388/S; p388s; read-out: IC50 (50% inhibition of cell growth)
Description: (§1) The cytoxicity results are recorded hereafter as the IC50 in μg/ml (concentration corresponding to a 50% inhibition of cell growth) on 6 tumoural lines namely KB, P388, P388/dox (resistant to doxorubicin), B16 and H429 and NSCLC-N6, which are human cells of non-small cell bronchopulmonary carcinoma type.
(§2) The determinations were carried out according to the protocol given in Cancer Chemother. Pharmacol. (1991) 28:283-292 by Roussakis et al.

HT 29 = test: Cytotoxicity, 50% inhibition of cell growth, HT 29; assay type: cell-based; conditions: Homo sapiens; HT 29; read-out: IC50 (50% inhibition of cell growth)
Description: as §1, §2

NSCLC.N6-L16 = test: Cytotoxicity, 50% inhibition of cell growth, NSCLC-N6; assay type: cell-based; conditions: Homo sapiens; NSCLC.N6-L16; read-out: IC50 (50% inhibition of cell growth)
Description: as §1, §2

[1] = system: NSCLC solid tumours (xenograft); assay type: in vivo, nude mouse; conditions: at the end of 30 days
Description: The anti-tumoural activity of the products of the invention was studied against solid tumours of NSCLC type grafted onto a nude mouse (D. Riou, C. Roussakis, J. F. Biard, J. F. Verbist: "Comparative study of antitumor activity of bistramides A, D and K against non-small cell bronchopulmonary carcinoma", Anticancer Research, 1993, 13, 2321-2334). Each mouse received 0.2 ml of a cell solution obtained by the mechanical dispersion of about 1 g of excised mouse tumour in 4.8 ml of a sterile saline solution. The sub-cutaneous grafted tumours were measured over their long length L and their short length 1. The tumoural volume was evaluated according to the formula Vt=L×1^2 /2. The tumoural growth on day d was calculated by the formula Vtd /Vtd0 for each mouse, Vtd0 being the tumoural volume at the start of treatment.
The curve "------.circle-solid.------ " relates to the control experiment, the curves "--- .diamond-solid.---", "-- .quadrature.--" and "-- .box-solid.--" to experiments with 10, 20 and 5 mg/kg of bistramide D respectively and the curve "----*----" to an experiment with 10 mg/kg of bistramide K. Each point represents the average tumoural growth for 6 mice.
In these experiments, bistramide K is injected at the rate of 10 mg/kg by intraperitoneal route for 16 days and bistramide D at the rate of 5 mg/kg by intraperitoneal route every day for 16 days; at 10 mg/kg by intravenous route on days 1, 5, 9, 14, and at 20 mg/kg by intravenous route on days 1, 5, 9, 14.

L.(L) donovani = test: Anti-leishmanial activity in vitro; assay type: cell-based; conditions: 500 μg/ml
[2] = system: Plasmodium vinckei petteri; test: PETERS test (4-day anti-malarial test in mice); assay type: in vivo, Plasmodium vinckei petteri in SWISS female white mice; conditions: 15 mg/kg/day, 4 days, sub-cutaneous; for percentage inhibition of parasitemia: D4
Description: The animals used are SWISS (IFFA CREDO) female white mice weighing approximately 30 grams. Five mice are distributed per batch.
The species Plasmodium vinckei petteri used comes from the strain 279 BY (see article by Cambie G et al. in CR.Acad.Sci.PARIS 310, series III, 183-188). This plasmodia carries out a schizogonic cycle in 24 hours in a synchronous fashion. Using the freezing-thawing technique for infected blood, only the merozoite stage resists, the other forms being destroyed.
Observation of blood parasites takes place on stained smears carried out by taking a drop of blood from the tail. The smears are then stained with May-Grumwald-Giesma. Calculation of the parasitemia (number of parasites per 100 red blood corpuscles) is carried out on smears.
In these trials bistramide D is used in sterile physiological water containing 5% DMSO.
The product is injected by sub-cutaneous route in the thigh.
In order to verify the activity of the compound studied, the PETERS test is used which constitutes the reference for the screening of molecules with anti-malarial activity. (PETERS W. 1980. Chemotherapy and Drug resistance in Malaria, vol II, Academic Press).
After treatment for 4 days, the percentage of red blood corpuscles parasitized is compared on thin smears between the control batch and the treated batch. In this way a percentage inhibition is established. […]
a) injection of 10^7 of parasitized red blood corpuscles by I.P. route (D0) b) injection of Bistramide D at 15 mg/kg/day, for 4 days by sub-cutaneous route (D0, D1. D2, D3) c) checking the parasitemia on smears on D4

[3] = system: Plasmodium vinckei petteri; test: Flow cytometry study of parasitized murine red blood corpuscles; conditions: G1 phase, maturation stage
Excerpt: The consequence of this is to halt the proliferation at the middle and old trophozoite stage.

## C/C=C/C(O)CC1CCC(C)C(CC(=O)NCC(O)C(C)C(=O)NCCCC2OC3(CCCC(CCC(C)/C=C(\C)C(C)O)O3)CCC2C)O1 (centres unmarked) [Bistramide D]
P388 (p388s)
  IC50: 0.36 µg/mL (≈ 0.509 µM)
HT 29
  IC50: 2.76 µg/mL (≈ 3.9 µM)
NSCLC.N6-L16
  IC50: 3.43 µg/mL (≈ 4.85 µM)
[1]; 5 mg/kg, IP, every day for 16 days
  tumoural growth relative to controls (100%): 100%
[1]; 10 mg/kg, IV, days 1, 5, 9, 14
  tumoural growth relative to controls (100%): 76%
[1]; 20 mg/kg, IV, days 1, 5, 9, 14
  tumoural growth relative to controls (100%): 53%
L.(L) donovani
  anti-leishmanial activity: has an anti-leishmanial activity in vitro
[2]; trial A
  percentage inhibition of parasitemia: 85%
[2]; trial A, controls 4%
  parasitemia, treated batch on D4: 0.64%
[2]; trial B
  percentage inhibition of parasitemia: 87%
[2]; trial B, controls 4%
  parasitemia, treated batch on D4: 0.50%
[2]; trial C
  percentage inhibition of parasitemia: 81%
[2]; trial C, controls 1.2%
  parasitemia, treated batch on D4: 0.23%
[3]
  blocking of the parasite / of parasitic proliferation: partial blocking of the parasite at its maturation stage
